Results from patent US4705799A, “Aminomethyl oxooxazolidinyl benzenes useful as antibacterial agents” (E. I. Du Pont de Nemours and Company, priority 1985, dated 1987).
≈ marks a conversion by molar mass, not a printed value.

Legend:
[1] = system: Staphylococcus aureus; experiment: In vivo efficacy of orally administered compounds in mouse intraperitoneal infections; details: Staphylococcus aureus, po, 168 h, mouse i.p. Staphylococcus aureus infection; oral; dosed at infection and 4 h post-infection; 7 days; read-out: ED50 (50 percent effective dose)
[2] = system: Escherichia coli; experiment: as above; details: 168 h; mouse i.p. Escherichia coli infection; oral; dosed at infection and 4 h post-infection; 7 days; read-out: ED50 (50 percent effective dose)
[3] = system: Escherichia coli; experiment: In vitro broth dilution minimal inhibitory concentration (standard microdilution method); type: cell-based; details: Escherichia coli; Mueller-Hinton broth; 24-hour; read-out: Microdilution Broth MIC
[4] = system: Staphylococcus aureus; experiment: In vivo efficacy of compounds administered subcutaneously in mouse intraperitoneal infections; details: sc, 168 h; mouse i.p. Staphylococcus aureus infection; subcutaneous; dosed at infection and 4 h post-infection; 7 days; read-out: ED50 (50 percent effective dose)
[5] = system: Escherichia coli; experiment: as above; details: sc, 168 h; mouse i.p. Escherichia coli infection; subcutaneous; dosed at infection and 4 h post-infection; 7 days; read-out: ED50 (50 percent effective dose)
[6] = system: Staphylococcus epidermidis; experiment: In vitro broth dilution minimal inhibitory concentration (standard microdilution method); type: cell-based; details: 24 h, Mueller-Hinton broth, 24-hour, read-out: Microdilution Broth MIC
[7] = Water solubility (observation); type: physicochemical

SMILES | ED50 [1] [mg/kg] | ED50 [2] [mg/kg] | MIC [3] [µg/mL] | ED50 [4] [mg/kg] | ED50 [5] [mg/kg] | MIC [6] [µg/mL] | water solubility [7]
CC(=O)c1ccc(N2CC(CNC(=O)C(Cl)Cl)OC2=O)cc1 (centres unmarked) [Example 172] | 10.2 | > 120 | > 128 | 13.6 | > 120 | 4 (≈ 11.6 µM) | 
COC(=O)NCC1CN(c2ccc(C(C)C)cc2)C(=O)O1 (centres unmarked) [Example 39] | 6.1 | > 120 | > 200 | 5.5 | > 120 | 12.5 (≈ 42.8 µM) | 
CC(=O)NCC1CN(c2ccc(C(C)=O)cc2)C(=O)O1 (single isomer, unassigned) [Example 129, (l)-N-[3-(4-Acetylphenyl)-2-oxo-5-oxazolidinylmethyl)acetamide] | 0.7 | 13.6 | 12.5 (≈ 45.2 µM) | 0.5 | 14 | 0.4 (≈ 1.45 µM) | 
CSCC(=O)c1ccc(N2CC(CNC(C)=O)OC2=O)cc1 (single isomer, unassigned) [Example 161, (l)-N-[3-[4-(Methylthioacetyl)phenyl]-2-oxo-5-oxazolidinylmethyl]acetamide] | 10.4 | > 120 | > 200 | 5.4 | > 120 | 1.6 (≈ 4.96 µM) | 
CC(=O)NCC1CN(c2ccc([S+](C)[O-])cc2)C(=O)O1 (single isomer, unassigned) [Example 120, (l)-N-[3-[4-(Methylsulfinyl)phenyl]-2-oxooxazolidin-5-ylmethyl]acetamide] | 3.3 | 11.1 | > 200 | 2.8 | 6.1 | 10 (≈ 33.7 µM) | 
CC(=O)NCC1CN(c2ccc(C(=O)CCl)cc2)C(=O)O1 (stereo not drawn) [Example 135, l-N-[3-[4-(chloroacetyl)phenyl]-2-oxo-5-oxazolidinylmethyl]acetamide] | < 4.4 | 100 | 100 (≈ 322 µM) | < 4.4 | 100 | 0.15 (≈ 0.483 µM) | 
CC(=O)NCC1CN(c2ccc([N+](=O)[O-])cc2)C(=O)O1 (single isomer, unassigned) [Example 146, (l)-N-[3-(4-Nitrophenyl)-2-oxooxazolidin-5-ylmethyl]acetamide] | 2 | 29.8 | 200 (≈ 716 µM) | > 13 | 40 | 2.4 (≈ 8.59 µM) | 
CC(=O)NCC1CN(c2ccc(Br)cc2)C(=O)O1 (centres unmarked) [Example 86] | 6.9 | > 40 | > 200 | 4.7 | > 40 | 6.25 (≈ 20 µM) | 
COC(=O)NCC1CN(c2ccc(S(=O)(=O)N=[N+]=[N-])cc2)C(=O)O1 (centres unmarked) [Example 117] | 16.1 | > 120 | > 200 | 7.2 | > 120 | 200 (≈ 563 µM) | 
CS(=O)(=O)c1ccc(N2CC(CNC(=O)CCl)OC2=O)cc1 (centres unmarked) [Example 67] | 42.5 | > 120 | 2.5 (≈ 7.21 µM) | 18.6 | 99 | 3.2 (≈ 9.23 µM) | 
CCCC(=O)c1ccc(N2CC(CNC(C)=O)OC2=O)cc1 (stereo not drawn) [Example 138, l-N-[2-oxo-3-[4-(1-oxobutyl)phenyl]-5-oxazolidinylmethyl]acetamide] | 9.6 | > 120 | > 128 | 5.1 | > 120 | 1 (≈ 3.29 µM) | 
CCC(=O)c1ccc(N2CC(CNC(C)=O)OC2=O)cc1 (stereo not drawn) [Example 134, l-N-[2-oxo-3-[4-(1-oxopropyl)phenyl]-5-oxazolidinylmethyl]acetamide] | < 4.4 | 46.9 | 25 (≈ 86.1 µM) | < 4.4 | 42.1 | 0.4 (≈ 1.38 µM) | 
CC(=O)NCC1CN(c2ccc(C(C)=NNC(C)=O)cc2)C(=O)O1 (centres unmarked) [Example 36] | 4.7 | 47.2 | > 200 | 7.4 | > 120 | 25 (≈ 75.2 µM) | 
CCc1ccc(N2CC(CNC(C)=O)OC2=O)cc1 (single isomer, unassigned) [Example 133, (l)-N-[3-(4-Ethylphenyl)-2-oxo-5-oxazolidinylmethyl]acetamide] | 3 | 17.9 | > 200 | 2.2 | 15.2 | 1.6 (≈ 6.1 µM) | 
CC(=O)NCC1CN(c2ccc(C(C)C)cc2)C(=O)O1 (centres unmarked) [Example 38] | 9.1 | > 120 | > 200 | 4.8 | 60.4 | 9.4 (≈ 34 µM) | 
CC(=O)NCC1CN(c2ccc(C(C)=NNC(C)=O)cc2)C(=O)O1 (single isomer, unassigned) [Example 132, (l)-N-[3-[4-[1-(Acetylhydrazono)ethyl]phenyl]-2-oxo-5-oxazolidinylmethyl]acetamide] | < 4.4 | 24.7 | > 200 | 6.9 | > 120 | 6.2 (≈ 18.7 µM) | 

SMILES | ED50 [1] [mg/kg] | ED50 [2] [mg/kg] | MIC [3] [µg/mL] | ED50 [4] [mg/kg] | ED50 [5] [mg/kg] | MIC [6] [µg/mL] | water solubility [7]
CC(=O)NCC1CN(c2ccc(F)cc2)C(=O)O1 (centres unmarked) [Example 88] | 23.6 | > 120 | > 200 | 21.9 | > 120 | > 200 | 
CNS(=O)(=O)c1ccc(N2CC(CNC(C)=O)OC2=O)cc1 (centres unmarked) [Example 46] | 15.8 | 62.5 | > 200 | > 13 | 91 | 12.5 (≈ 38.2 µM) | 
CC(=O)NCC1CN(c2ccc(Cl)cc2)C(=O)O1 (centres unmarked) [Example 87] | 42 | > 120 | > 200 | 10.5 | > 120 | 100 (≈ 372 µM) | 
CCCCc1ccc(N2CC(CNC(C)=O)OC2=O)cc1 (centres unmarked) [Example 81] | 47.9 | > 120 | > 200 | 27.9 | > 120 | 6.2 (≈ 21.4 µM) | 
CC(=O)NCC1CN(c2ccc(NS(C)(=O)=O)cc2)C(=O)O1 (single isomer, unassigned) [Example 151, (l)-N-[3-[4-(Methylsulfonylamino)phenyl]-2-oxooxazolidin-5-ylmethyl]acetamide] | 62.9 |  | > 200 | 9.7 |  | 200 (≈ 611 µM) | quite water soluble
CS(=O)(=O)c1ccc(N2CC(CNC(=O)CCCl)OC2=O)cc1 (centres unmarked) [Example 94] | 30.2 | 76.8 | 200 (≈ 554 µM) | 18.7 | 46.7 | 18.8 (≈ 52.1 µM) | 
CC(=O)NCC1CN(c2ccc(C(C)=O)c(C)c2)C(=O)O1 (centres unmarked) [Example 142] | 1.8 | 52.1 | > 128 | 1.8 | 52.1 | 1 (≈ 3.44 µM) | 
CC(=O)NCC1CN(c2ccc(C(C)O)cc2)C(=O)O1 (single isomer, unassigned) [Example 130, (l)-N-[3-[4-(1-Hydroxyethyl)phenyl]-2-oxo-5-oxazolidinylmethyl]acetamide] | 2.1 | 17.4 | 50 (≈ 180 µM) | < 1.3 | 26.3 | 3.1 (≈ 11.1 µM) | 
CC(=O)N(CC1CN(c2ccc(S(C)(=O)=O)cc2)C(=O)O1)C1CCCCC1 (racemic) [Example 124, (dl)-N-cyclohexyl-N-[3-[4-(methylsulfonyl)phenyl]-2-oxooxazolidin-5-ylmethyl]acetamide] | 48.4 | > 120 | > 200 | 16.3 | > 120 | > 200 | 
CC(=O)c1ccc(N2CC(CNC(=O)CCCl)OC2=O)cc1 (centres unmarked) [Example 95] | 10.9 | > 120 | > 200 | 7.7 | 60.7 | 12.5 (≈ 38.5 µM) | 
NS(=O)(=O)c1ccc(N2CC(CNC(=O)C(Cl)Cl)OC2=O)cc1 (single isomer, unassigned) [Example 112, (l)-2,2-Dichloro-N-[3-[4-(aminosulfonyl)phenyl]-2-oxooxazolidin-5-ylmethyl]acetamide] | > 360 | > 360 | 50 (≈ 131 µM) | 14.4 | 62.7 | 12.5 (≈ 32.7 µM) | 
CC(=O)NCC1CN(c2ccc(S(N)(=O)=O)cc2)C(=O)O1 (single isomer, unassigned) [Example 113, (l)-N-[3-[4-(Aminosulfonyl)phenyl]-2-oxooxazolidin-5-ylmethyl]acetamide] | 17.2 | 29.7 | 100 (≈ 319 µM) | 9.6 | 11.7 | 25 (≈ 79.8 µM) | 
CC(=O)NCC1CN(c2ccc(S)cc2)C(=O)O1 (single isomer, unassigned) [Example 153, (l)-N-[3-(4-Mercaptophenyl)-2-oxooxazolidin-5-ylmethyl]acetamide] | 5.7 | 17 | > 50 | < 13 | 57.2 | > 50 | 
CCc1ccc(N2CC(CNC(=O)OC)OC2=O)cc1 (centres unmarked) [Example 83] | 9.6 | > 120 | > 200 | 6.6 | > 12 | 12.5 (≈ 44.9 µM) | 
CCc1ccc(N2CC(CNC(C)=O)OC2=O)cc1 (centres unmarked) [Example 82] | 2.7 | 65.9 | > 200 | 2 | 95.1 | 3.1 (≈ 11.8 µM) | 
CS(=O)(=O)c1ccc(N2CC(CNC(=O)CN=[N+]=[N-])OC2=O)cc1 (centres unmarked) [Example 158] | 11.4 | 56.5 | 50 (≈ 141 µM) | < 13 | 25 | 6.3 (≈ 17.8 µM) | 
